In PubChem BioAssay AID624472 (The Scripps Research Institute Molecular Screening Center, 2012):

Biological target: Monoacylglycerol lipase ABHD6 (Mus musculus) (UniProt Q8R2Y0)
Experiment: ABHD6 inhibition in mouse proteome, late-stage follow-up, selectivity assay for DAGLb inhibitor project, biochemical, gel-based competitive ABPP, fluorescence, enantiomers (AID 624472)
Conditions: at 10 µM (top of the series)

Sequence of Monoacylglycerol lipase ABHD6 (Mus musculus) (Q8R2Y0 whole entry, looked up): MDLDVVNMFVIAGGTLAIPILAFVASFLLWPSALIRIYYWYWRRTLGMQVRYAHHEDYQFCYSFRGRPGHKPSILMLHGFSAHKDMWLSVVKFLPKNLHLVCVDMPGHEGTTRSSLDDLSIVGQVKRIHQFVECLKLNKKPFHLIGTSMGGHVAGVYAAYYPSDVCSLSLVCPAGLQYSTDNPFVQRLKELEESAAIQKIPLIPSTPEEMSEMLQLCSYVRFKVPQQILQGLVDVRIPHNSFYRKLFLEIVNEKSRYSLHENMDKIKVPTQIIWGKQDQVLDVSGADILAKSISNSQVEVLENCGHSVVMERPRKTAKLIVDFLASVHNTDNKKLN

- inhibition: 100%
Compound: O=C(N1CCCCC1Cc1ccccc1)n1cc(-c2ccc(Br)cc2)nn1 (stereo unspecified)
